Laboratory results reported in ChEMBL document CHEMBL4507300 (2021).

Experiments:
[1] = system: Tyrosine-protein kinase ABL1 (Homo sapiens), P00519 [F317L]; conditions: Compound concentration 1000.0 nM
[2] = molecular target: Casein kinase I isoform gamma-1 (Homo sapiens) (UniProt Q9HCP0); conditions: Compound concentration 1000.0 nM
[3] = molecular target: Serine/threonine-protein kinase NIM1 (Homo sapiens) (UniProt Q8IY84); conditions: Compound concentration 1000.0 nM
[4] = molecular target: Homeodomain-interacting protein kinase 4 (Homo sapiens) (UniProt Q8NE63); conditions: Compound concentration 1000.0 nM
[5] = molecular target: Tyrosine-protein kinase ABL1 (Homo sapiens) (UniProt P00519); conditions: Compound concentration 1000.0 nM
[6] = system: Epidermal growth factor receptor (Homo sapiens), P00533 [L858R,T790M]; conditions: Compound concentration 1000.0 nM
[7] = molecular target: Hormonally up-regulated neu tumor-associated kinase (Homo sapiens) (UniProt P57058); conditions: Compound concentration 1000.0 nM
[8] = molecular target: Peripheral plasma membrane protein CASK (Homo sapiens) (UniProt O14936); conditions: Compound concentration 1000.0 nM
[9] = molecular target: Ephrin type-A receptor 4 (Homo sapiens) (UniProt P54764); conditions: Compound concentration 1000.0 nM
[10] = molecular target: Tyrosine-protein kinase BTK (Homo sapiens) (UniProt Q06187); conditions: Compound concentration 1000.0 nM
[11] = molecular target: Serine/threonine-protein kinase WNK1 (Homo sapiens) (UniProt Q9H4A3); conditions: Compound concentration 1000.0 nM
[12] = molecular target: Serine/threonine-protein kinase Nek5 (Homo sapiens) (UniProt Q6P3R8); conditions: Compound concentration 1000.0 nM
[13] = molecular target: Bone morphogenetic protein receptor type-1B (Homo sapiens) (UniProt O00238); conditions: Compound concentration 1000.0 nM
[14] = molecular target: Ribosomal protein S6 kinase alpha-3 (Homo sapiens) (UniProt P51812); conditions: Compound concentration 1000.0 nM
[15] = system: Mast/stem cell growth factor receptor Kit (Homo sapiens), P10721 [V559D,T670I]; conditions: Compound concentration 1000.0 nM
[16] = molecular target: Tyrosine-protein kinase TXK (Homo sapiens) (UniProt P42681); conditions: Compound concentration 1000.0 nM
[17] = molecular target: Receptor-type tyrosine-protein kinase FLT3 (Homo sapiens) (UniProt P36888); conditions: Compound concentration 1000.0 nM
[18] = molecular target: 5-hydroxytryptamine receptor 1E (Homo sapiens) (UniProt P28566); conditions: Compound concentration 10.0 uM
[19] = molecular target: Epithelial discoidin domain-containing receptor 1 (Homo sapiens) (UniProt Q08345); conditions: Compound concentration 1000.0 nM
[20] = molecular target: Serine/threonine-protein kinase WNK4 (Homo sapiens) (UniProt Q96J92); conditions: Compound concentration 1000.0 nM
[21] = molecular target: Serine/threonine-protein kinase ULK1 (Homo sapiens) (UniProt O75385); conditions: Compound concentration 1000.0 nM
[22] = molecular target: Tyrosine-protein kinase Mer (Homo sapiens) (UniProt Q12866); conditions: Compound concentration 1000.0 nM
[23] = molecular target: Maternal embryonic leucine zipper kinase (Homo sapiens) (UniProt Q14680); conditions: Compound concentration 1000.0 nM
[24] = molecular target: Serine/threonine-protein kinase Sgk2 (Homo sapiens) (UniProt Q9HBY8); conditions: Compound concentration 1000.0 nM
[25] = molecular target: Myosin light chain kinase (Homo sapiens) (UniProt Q32MK0); conditions: Compound concentration 1000.0 nM
[26] = molecular target: Calcium/calmodulin-dependent protein kinase type 1D (Homo sapiens) (UniProt Q8IU85); conditions: Compound concentration 1000.0 nM
[27] = molecular target: Muscarinic acetylcholine receptor M1 (Homo sapiens) (UniProt P11229); conditions: Compound concentration 10.0 uM
[28] = molecular target: Dual specificity mitogen-activated protein kinase kinase 2 (Homo sapiens) (UniProt P36507); conditions: Compound concentration 1000.0 nM
[29] = molecular target: Serine/threonine-protein kinase PknB (Mycobacterium tuberculosis) (UniProt P9WI81); conditions: Compound concentration 1000.0 nM
[30] = system: Epidermal growth factor receptor (Homo sapiens), P00533 [UNDEFINED MUTATION]; conditions: Compound concentration 1000.0 nM
[31] = molecular target: Dual specificity mitogen-activated protein kinase kinase 7 (Homo sapiens) (UniProt O14733); conditions: Compound concentration 1000.0 nM
[32] = molecular target: Kappa-type opioid receptor (Homo sapiens) (UniProt P41145); conditions: Compound concentration 10.0 uM
[33] = molecular target: Receptor tyrosine-protein kinase erbB-2 (Homo sapiens) (UniProt P04626); conditions: Compound concentration 1000.0 nM
[34] = molecular target: Mitogen-activated protein kinase 9 (Homo sapiens) (UniProt P45984); conditions: Compound concentration 1000.0 nM
[35] = molecular target: Mitogen-activated protein kinase kinase kinase 12 (Homo sapiens) (UniProt Q12852); conditions: Compound concentration 1000.0 nM
[36] = molecular target: Serine/threonine-protein kinase DCLK3 (Homo sapiens) (UniProt Q9C098); conditions: Compound concentration 1000.0 nM
[37] = molecular target: Receptor-type tyrosine-protein kinase FLT3 (Homo sapiens) (UniProt P36888); conditions: Compound concentration 1000.0 nM; remark: listed apart in the source
[38] = molecular target: Mitogen-activated protein kinase 8 (Homo sapiens) (UniProt P45983); conditions: Compound concentration 1000.0 nM
[39] = system: Phosphatidylinositol 4,5-bisphosphate 3-kinase catalytic subunit alpha isoform (Homo sapiens), P42336 [E545K]; conditions: Compound concentration 1000.0 nM
[40] = molecular target: Tyrosine-protein kinase Lck (Homo sapiens) (UniProt P06239); conditions: Compound concentration 1000.0 nM
[41] = molecular target: Ribosomal protein S6 kinase alpha-2 (Homo sapiens) (UniProt Q15349); conditions: Compound concentration 1000.0 nM
[42] = system: Tyrosine-protein kinase ABL1 (Homo sapiens), P00519 [F317I]; conditions: Compound concentration 1000.0 nM
[43] = molecular target: Epidermal growth factor receptor (Homo sapiens) (UniProt P00533); conditions: Compound concentration 1000.0 nM
[44] = molecular target: Serine/threonine-protein kinase/endoribonuclease IRE1 (Homo sapiens) (UniProt O75460); conditions: Compound concentration 1000.0 nM
[45] = molecular target: Phosphatidylinositol 4-phosphate 5-kinase type-1 alpha (Homo sapiens) (UniProt Q99755); conditions: Compound concentration 1000.0 nM

Receptor-type tyrosine-protein kinase FLT3 (Homo sapiens), sequence (P36888 whole entry): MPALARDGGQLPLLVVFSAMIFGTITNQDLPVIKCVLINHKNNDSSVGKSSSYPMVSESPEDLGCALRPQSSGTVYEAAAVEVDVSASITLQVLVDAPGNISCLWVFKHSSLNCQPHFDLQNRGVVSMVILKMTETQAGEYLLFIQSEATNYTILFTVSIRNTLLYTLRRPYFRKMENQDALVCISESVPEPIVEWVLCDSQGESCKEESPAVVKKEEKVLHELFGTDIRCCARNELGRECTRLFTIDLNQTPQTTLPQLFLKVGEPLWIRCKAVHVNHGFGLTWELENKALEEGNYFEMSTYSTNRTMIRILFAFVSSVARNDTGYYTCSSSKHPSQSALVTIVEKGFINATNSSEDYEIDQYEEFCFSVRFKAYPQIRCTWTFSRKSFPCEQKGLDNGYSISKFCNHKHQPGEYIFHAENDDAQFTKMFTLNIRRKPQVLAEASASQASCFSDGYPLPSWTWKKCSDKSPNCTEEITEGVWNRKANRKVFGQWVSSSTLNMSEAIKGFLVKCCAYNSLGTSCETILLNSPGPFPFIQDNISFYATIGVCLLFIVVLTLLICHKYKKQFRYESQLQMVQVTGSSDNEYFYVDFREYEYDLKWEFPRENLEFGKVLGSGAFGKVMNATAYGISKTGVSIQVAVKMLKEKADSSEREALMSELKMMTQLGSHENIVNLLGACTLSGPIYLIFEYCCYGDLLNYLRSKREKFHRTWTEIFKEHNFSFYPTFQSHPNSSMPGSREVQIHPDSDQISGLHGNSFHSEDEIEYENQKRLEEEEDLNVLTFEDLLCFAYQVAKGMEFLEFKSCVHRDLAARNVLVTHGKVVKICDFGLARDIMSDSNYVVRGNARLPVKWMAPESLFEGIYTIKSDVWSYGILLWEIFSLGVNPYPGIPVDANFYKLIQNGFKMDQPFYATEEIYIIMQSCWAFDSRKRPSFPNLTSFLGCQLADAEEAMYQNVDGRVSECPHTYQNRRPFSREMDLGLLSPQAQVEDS
Tyrosine-protein kinase ABL1 (Homo sapiens), sequence (P00519 whole entry): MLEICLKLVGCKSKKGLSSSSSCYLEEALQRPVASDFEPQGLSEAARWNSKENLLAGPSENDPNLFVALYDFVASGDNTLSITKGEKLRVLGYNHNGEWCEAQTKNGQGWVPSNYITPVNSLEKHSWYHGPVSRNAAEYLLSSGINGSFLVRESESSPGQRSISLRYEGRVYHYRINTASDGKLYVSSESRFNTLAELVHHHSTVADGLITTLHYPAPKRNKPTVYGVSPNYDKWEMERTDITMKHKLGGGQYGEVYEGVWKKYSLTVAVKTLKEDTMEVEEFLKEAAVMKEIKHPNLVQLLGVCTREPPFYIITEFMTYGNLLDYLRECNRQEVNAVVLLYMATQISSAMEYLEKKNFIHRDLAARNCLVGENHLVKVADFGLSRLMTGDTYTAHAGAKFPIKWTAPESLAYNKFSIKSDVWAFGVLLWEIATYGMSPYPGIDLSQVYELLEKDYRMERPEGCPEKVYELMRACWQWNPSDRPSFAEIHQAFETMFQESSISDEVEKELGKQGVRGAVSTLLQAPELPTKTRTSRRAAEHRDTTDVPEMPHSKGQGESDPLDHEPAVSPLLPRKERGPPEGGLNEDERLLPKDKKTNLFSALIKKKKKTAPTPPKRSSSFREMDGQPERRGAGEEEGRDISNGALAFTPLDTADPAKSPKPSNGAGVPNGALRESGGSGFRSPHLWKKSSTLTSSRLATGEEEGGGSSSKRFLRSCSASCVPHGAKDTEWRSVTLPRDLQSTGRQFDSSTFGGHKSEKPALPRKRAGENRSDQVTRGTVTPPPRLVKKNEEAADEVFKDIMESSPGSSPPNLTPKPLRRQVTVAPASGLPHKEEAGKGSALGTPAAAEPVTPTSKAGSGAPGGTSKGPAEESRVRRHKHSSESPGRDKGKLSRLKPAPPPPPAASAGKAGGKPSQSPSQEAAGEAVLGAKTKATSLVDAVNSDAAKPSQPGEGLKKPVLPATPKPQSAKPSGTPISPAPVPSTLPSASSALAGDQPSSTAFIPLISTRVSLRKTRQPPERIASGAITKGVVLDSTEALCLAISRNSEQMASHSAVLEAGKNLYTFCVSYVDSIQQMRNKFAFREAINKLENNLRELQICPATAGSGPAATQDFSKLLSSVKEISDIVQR
Serine/threonine-protein kinase Nek5 (Homo sapiens), sequence (Q6P3R8 whole entry): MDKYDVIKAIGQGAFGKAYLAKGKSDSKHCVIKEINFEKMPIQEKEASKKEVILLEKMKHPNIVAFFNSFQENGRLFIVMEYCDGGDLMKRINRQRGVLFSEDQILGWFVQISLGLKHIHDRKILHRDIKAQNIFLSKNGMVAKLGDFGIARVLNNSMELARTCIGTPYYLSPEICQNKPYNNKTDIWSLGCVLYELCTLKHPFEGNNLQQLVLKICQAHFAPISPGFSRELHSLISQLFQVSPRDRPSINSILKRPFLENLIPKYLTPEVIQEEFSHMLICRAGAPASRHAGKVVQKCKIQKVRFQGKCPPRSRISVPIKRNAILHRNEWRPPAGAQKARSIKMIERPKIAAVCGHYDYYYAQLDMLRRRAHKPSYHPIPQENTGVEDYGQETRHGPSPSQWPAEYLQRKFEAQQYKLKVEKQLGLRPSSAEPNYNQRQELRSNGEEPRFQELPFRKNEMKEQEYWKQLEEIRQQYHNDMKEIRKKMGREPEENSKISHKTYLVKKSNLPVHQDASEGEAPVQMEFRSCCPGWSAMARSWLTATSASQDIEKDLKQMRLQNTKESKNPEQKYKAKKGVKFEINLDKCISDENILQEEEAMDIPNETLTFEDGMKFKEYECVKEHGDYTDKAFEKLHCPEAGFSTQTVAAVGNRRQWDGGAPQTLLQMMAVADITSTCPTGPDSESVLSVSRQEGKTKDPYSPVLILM
Mitogen-activated protein kinase 8 (Homo sapiens), sequence (P45983 whole entry, canonical isoform): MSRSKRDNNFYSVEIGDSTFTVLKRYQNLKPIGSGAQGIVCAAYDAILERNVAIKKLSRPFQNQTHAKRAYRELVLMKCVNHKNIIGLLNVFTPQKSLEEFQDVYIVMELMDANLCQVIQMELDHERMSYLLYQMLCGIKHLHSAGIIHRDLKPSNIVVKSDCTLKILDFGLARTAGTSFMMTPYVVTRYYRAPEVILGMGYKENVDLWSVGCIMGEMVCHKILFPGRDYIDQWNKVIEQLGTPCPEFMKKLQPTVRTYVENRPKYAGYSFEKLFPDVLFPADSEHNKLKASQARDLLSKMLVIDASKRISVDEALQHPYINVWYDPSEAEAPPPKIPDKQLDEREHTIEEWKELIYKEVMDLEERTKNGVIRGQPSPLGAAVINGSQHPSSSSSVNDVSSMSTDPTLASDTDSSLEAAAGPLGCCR
Serine/threonine-protein kinase NIM1 (Homo sapiens), sequence (Q8IY84 whole entry): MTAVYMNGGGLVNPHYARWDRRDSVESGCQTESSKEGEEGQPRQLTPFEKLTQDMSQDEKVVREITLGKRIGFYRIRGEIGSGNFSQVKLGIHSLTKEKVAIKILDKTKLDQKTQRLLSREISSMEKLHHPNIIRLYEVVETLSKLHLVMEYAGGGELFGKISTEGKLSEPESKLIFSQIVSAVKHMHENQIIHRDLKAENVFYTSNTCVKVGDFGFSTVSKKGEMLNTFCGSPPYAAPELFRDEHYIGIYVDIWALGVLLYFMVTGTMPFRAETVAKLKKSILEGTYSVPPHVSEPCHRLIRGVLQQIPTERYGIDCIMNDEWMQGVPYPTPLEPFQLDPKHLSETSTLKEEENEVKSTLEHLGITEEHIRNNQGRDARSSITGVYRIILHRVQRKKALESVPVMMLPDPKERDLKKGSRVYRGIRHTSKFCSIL
Serine/threonine-protein kinase ULK1 (Homo sapiens), sequence (O75385 whole entry): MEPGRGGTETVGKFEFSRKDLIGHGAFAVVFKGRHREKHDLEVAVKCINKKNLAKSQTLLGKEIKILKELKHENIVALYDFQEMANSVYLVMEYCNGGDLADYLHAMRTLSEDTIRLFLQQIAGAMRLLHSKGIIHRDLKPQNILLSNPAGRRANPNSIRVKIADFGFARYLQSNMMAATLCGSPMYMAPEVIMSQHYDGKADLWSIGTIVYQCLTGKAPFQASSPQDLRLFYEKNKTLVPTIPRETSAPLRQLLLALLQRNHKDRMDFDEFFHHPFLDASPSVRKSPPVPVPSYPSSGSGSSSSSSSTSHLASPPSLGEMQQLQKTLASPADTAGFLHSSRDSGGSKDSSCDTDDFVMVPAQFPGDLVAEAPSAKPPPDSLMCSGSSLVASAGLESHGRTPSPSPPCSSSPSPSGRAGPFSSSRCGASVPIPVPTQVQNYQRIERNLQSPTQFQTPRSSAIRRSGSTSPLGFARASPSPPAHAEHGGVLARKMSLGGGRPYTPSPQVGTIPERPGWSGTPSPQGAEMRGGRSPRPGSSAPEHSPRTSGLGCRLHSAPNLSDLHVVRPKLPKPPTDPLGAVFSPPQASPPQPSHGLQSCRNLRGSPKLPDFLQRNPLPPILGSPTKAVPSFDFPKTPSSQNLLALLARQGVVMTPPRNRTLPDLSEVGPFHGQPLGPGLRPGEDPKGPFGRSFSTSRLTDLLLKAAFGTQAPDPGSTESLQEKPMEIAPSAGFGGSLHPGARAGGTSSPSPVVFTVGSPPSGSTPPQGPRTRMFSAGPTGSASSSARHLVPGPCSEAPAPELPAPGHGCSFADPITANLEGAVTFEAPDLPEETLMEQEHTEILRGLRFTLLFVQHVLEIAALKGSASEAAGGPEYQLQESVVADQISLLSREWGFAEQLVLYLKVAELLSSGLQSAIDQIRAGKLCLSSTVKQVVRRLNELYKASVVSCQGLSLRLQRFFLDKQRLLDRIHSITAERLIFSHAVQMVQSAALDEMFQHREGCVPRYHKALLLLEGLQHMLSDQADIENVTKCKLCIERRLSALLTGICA
Tyrosine-protein kinase ABL1 (Homo sapiens), P00519 [F317I], sequence (P00519 whole entry F317I): as the sequence (P00519 whole entry) above, with F317I counted along it
Tyrosine-protein kinase ABL1 (Homo sapiens), P00519 [F317L], sequence (P00519 whole entry F317L, canonical isoform): as the sequence (P00519 whole entry) above, with F317L counted along it

## COc1cccc(CNC(=O)c2nc3scc(COCc4ccc(C(=O)O)cc4)c3c(=O)[nH]2)c1 [T-26c]
[1]
  residual activity: 87.2%
[2]
  residual activity: 100%
[3]
  residual activity: 100%
[4]
  residual activity: 94.3%
[5]
  residual activity: 85%
[6]
  residual activity: 58.6%
[7]
  residual activity: 100%
[8]
  residual activity: 67.3%
[9]
  residual activity: 91.1%
[10]
  residual activity: 63%
[11]
  residual activity: 76.7%
[12]
  residual activity: 100%
[13]
  residual activity: 64.5%
[14]
  residual activity: 56.5%
[15]
  residual activity: 100%
[16]
  residual activity: 87.7%
[17]
  residual activity: 62.5%
[18]
  inhibition: -0.179%
[19]
  residual activity: 100%
[20]
  residual activity: 100%
[21]
  residual activity: 74%
[22]
  residual activity: 88.3%
[23]
  residual activity: 100%
[24]
  residual activity: 84.9%
[25]
  residual activity: 72.8%
[26]
  residual activity: 100%
[27]
  inhibition: 53.4%
[28]
  residual activity: 75.1%
[29]
  residual activity: 93%
[30]
  residual activity: 66.1%
[31]
  residual activity: 81.2%
[32]
  inhibition: 8.18%
[33]
  residual activity: 97.2%
[34]
  residual activity: 97.1%
[35]
  residual activity: 58.2%
[36]
  residual activity: 100%
[37]
  residual activity: 85%
[38]
  residual activity: 100%
[39]
  residual activity: 86.3%
[40]
  residual activity: 100%
[41]
  residual activity: 100%
[42]
  residual activity: 96.4%
[43]
  residual activity: 69.3%
[44]
  residual activity: 89.7%
[45]
  residual activity: 100%
